This data set can be described thus: Dissolution of ASA together with sodium carbonate (one component) in 15 ml pure water in two-component device. Format: physicochemical. As for the experimental part:
In the following example ASA and the disodium salt of carbonic acid (Na2CO3) are dissolved at the same time in 15 ml pure water.
300 mg ASA and 258-263 mg sodium carbonate (Na2CO3) were placed together in the powder compartment of the test device used in example 1, and 15 ml of pure water was filled into the container (bottle) of said device. After releasing the ASA and sodium carbonate into the water, the solution was shaken until all ASA was dissolved.

Structures are written as SMILES.

With `CC(=O)Oc1ccccc1C(=O)O` [ASA, acetylsalicylic acid], the “pH of the solutions after dissolution of ASA and the carbonate salt” value (300 mg ASA and 258-263 mg Na2CO3, 15 ml pure water) is listed as 9.41-9.43. For the setting “300 mg ASA and 258-263 mg Na2CO3 together as powder, 15 ml pure water”, the “Time before ASA was dissolved” value is listed as “approx. 120 sec”.

Source of the values: US11850253B2, “Two component compositions” (Asamedic AS, priority 2017, dated 2023).
